# Measured values published in the OligoGym collection.
# HELM strings list units from the 5' end as sugar, base in round brackets, then linkage (d deoxyribose, r ribose, m 2'-O-methyl, p phosphodiester). Strings are as the collection lists them; they lack the last nucleoside at the 3' end of the tested compound. [moe] = 2'-O-(2-methoxyethyl) (MOE); [sp] = phosphorothioate linkage; [m5C] = 5-methylcytosine
# Target: APP
# Assay: mouse, dose not given
# Conditions: ASO
row,Substance,3 h FOB score [score 0-7]
1,RNA1{[moe](T)[sp].[moe](T)p.[moe](A)p.[moe]([m5C])p.[moe](A)[sp].d(T)[sp].d([m5C])[sp].d(A)[sp].d(T)[sp].d(T)[sp].d(T)[sp].d(T)[sp].d([m5C])[sp].d(T)[sp].d(T)[sp].[moe](G)p.[moe]([m5C])p.[moe](A)[sp].[moe](G)}$$$$ (last 3' nucleoside missing),0.33
2,RNA1{[moe](T)[sp].[moe](T)p.[moe](A)p.[moe]([m5C])p.[moe]([m5C])[sp].d(T)[sp].d(T)[sp].d(T)[sp].d(A)[sp].d(A)[sp].d([m5C])[sp].d(A)[sp].d(T)[sp].d(T)[sp].d([m5C])[sp].[moe]([m5C])p.[moe](T)p.[moe]([m5C])[sp].[moe](A)}$$$$ (last 3' nucleoside missing),0
3,RNA1{[moe](T)[sp].[moe](T)p.[moe](G)p.[moe](A)p.[moe](A)[sp].d([m5C])[sp].d([m5C])[sp].d([m5C])[sp].d(A)[sp].d([m5C])[sp].d(A)[sp].d(T)[sp].d([m5C])[sp].d(T)[sp].d(T)[sp].[moe]([m5C])p.[moe](T)p.[moe](G)[sp].[moe]([m5C])}$$$$ (last 3' nucleoside missing),0
4,RNA1{[moe](T)[sp].[moe](T)p.[moe](G)p.[moe](A)p.[moe](T)[sp].d(A)[sp].d(T)[sp].d(T)[sp].d(T)[sp].d(G)[sp].d(T)[sp].d([m5C])[sp].d(A)[sp].d(A)[sp].d([m5C])[sp].[moe]([m5C])p.[moe]([m5C])p.[moe](A)[sp].[moe](G)}$$$$ (last 3' nucleoside missing),2.5
5,RNA1{[moe](T)[sp].[moe](T)p.[moe](G)p.[moe](A)p.[moe](T)[sp].d(G)[sp].d([m5C])[sp].d(A)[sp].d([m5C])[sp].d(A)[sp].d(T)[sp].d(A)[sp].d(T)[sp].d([m5C])[sp].d([m5C])[sp].[moe](A)p.[moe](G)p.[moe](G)[sp].[moe]([m5C])}$$$$ (last 3' nucleoside missing),2
6,RNA1{[moe](T)[sp].[moe](T)p.[moe](G)p.[moe](A)p.[moe](T)p.[moe](A)p.d(T)[sp].d(T)[sp].d(T)[sp].d(G)[sp].d(T)[sp].d([m5C])[sp].d(A)[sp].d(A)[sp].d([m5C])[sp].d([m5C])[sp].[moe]([m5C])p.[moe](A)[sp].[moe](G)}$$$$ (last 3' nucleoside missing),4.75
7,RNA1{[moe](T)[sp].[moe](T)p.[moe](G)p.[moe](G)p.[moe](A)[sp].d(T)[sp].d(T)[sp].d([m5C])[sp].d(A)[sp].d(T)[sp].d([m5C])[sp].d(T)[sp].d([m5C])[sp].d([m5C])[sp].d(A)[sp].[moe](T)p.[moe](A)p.[moe]([m5C])[sp].[moe](T)}$$$$ (last 3' nucleoside missing),0
8,RNA1{[moe](T)[sp].[moe](T)p.[moe](G)p.[moe](T)p.[moe](A)[sp].d(G)[sp].d(G)[sp].d(A)[sp].d(A)[sp].d([m5C])[sp].d(T)[sp].d([m5C])[sp].d(G)[sp].d(A)[sp].d(A)[sp].[moe]([m5C])p.[moe]([m5C])p.[moe](A)[sp].[moe]([m5C])}$$$$ (last 3' nucleoside missing),2
9,RNA1{[moe](T)[sp].[moe](T)p.[moe](T)p.[moe](A)p.[moe]([m5C])[sp].d([m5C])[sp].d(T)[sp].d(T)[sp].d(T)[sp].d(A)[sp].d(A)[sp].d([m5C])[sp].d(A)[sp].d(T)[sp].d(T)[sp].[moe]([m5C])p.[moe]([m5C])p.[moe](T)[sp].[moe]([m5C])}$$$$ (last 3' nucleoside missing),0
10,RNA1{[moe](T)[sp].[moe](T)p.[moe](T)p.[moe](G)p.[moe]([m5C])[sp].d(A)[sp].d(T)[sp].d(A)[sp].d(T)[sp].d(T)[sp].d([m5C])[sp].d(A)[sp].d(T)[sp].d(A)[sp].d([m5C])[sp].[moe](T)p.[moe](T)p.[moe](G)[sp].[moe](G)}$$$$ (last 3' nucleoside missing),0
11,RNA1{[moe](T)[sp].[moe](T)p.[moe](T)p.[moe](G)p.[moe]([m5C])[sp].d(T)[sp].d(A)[sp].d([m5C])[sp].d(T)[sp].d(T)[sp].d(G)[sp].d(A)[sp].d(T)[sp].d(A)[sp].d(A)[sp].[moe](T)p.[moe]([m5C])p.[moe]([m5C])[sp].[moe](T)}$$$$ (last 3' nucleoside missing),1
12,RNA1{[moe](T)[sp].[moe](T)p.[moe]([m5C])p.[moe](A)p.[moe]([m5C])[sp].d(A)[sp].d(G)[sp].d(T)[sp].d(T)[sp].d(T)[sp].d(A)[sp].d([m5C])[sp].d([m5C])[sp].d([m5C])[sp].d([m5C])[sp].[moe](A)p.[moe](A)p.[moe](G)[sp].[moe]([m5C])}$$$$ (last 3' nucleoside missing),0
13,RNA1{[moe](T)[sp].[moe](T)p.[moe]([m5C])p.[moe]([m5C])p.[moe](A)[sp].d(A)[sp].d(A)[sp].d(G)[sp].d(A)[sp].d(T)[sp].d(T)[sp].d([m5C])[sp].d([m5C])[sp].d(A)[sp].d([m5C])[sp].[moe](T)p.[moe](T)p.[moe](T)[sp].[moe]([m5C])}$$$$ (last 3' nucleoside missing),0
14,RNA1{[moe](T)[sp].[moe]([m5C])p.[moe](A)p.[moe](G)p.[moe]([m5C])[sp].d([m5C])[sp].d([m5C])[sp].d([m5C])[sp].d(A)[sp].d(A)[sp].d(A)[sp].d(A)[sp].d(G)[sp].d(A)[sp].d(A)[sp].[moe](T)p.[moe](G)p.[moe]([m5C])[sp].[moe]([m5C])}$$$$ (last 3' nucleoside missing),0
15,RNA1{[moe](T)[sp].[moe]([m5C])p.[moe](A)p.[moe](T)p.[moe](A)[sp].d(T)[sp].d(T)[sp].d(G)[sp].d(T)[sp].d([m5C])[sp].d(T)[sp].d(T)[sp].d([m5C])[sp].d(A)[sp].d(A)[sp].[moe](T)p.[moe](G)p.[moe](T)[sp].[moe](G)}$$$$ (last 3' nucleoside missing),2
16,RNA1{[moe](T)[sp].[moe]([m5C])p.[moe](A)p.[moe](T)p.[moe](T)[sp].d([m5C])[sp].d(T)[sp].d([m5C])[sp].d(A)[sp].d(T)[sp].d([m5C])[sp].d([m5C])[sp].d([m5C])[sp].d([m5C])[sp].d(A)[sp].[moe](G)p.[moe](G)p.[moe](T)[sp].[moe](G)}$$$$ (last 3' nucleoside missing),0
17,RNA1{[moe](T)[sp].[moe]([m5C])p.[moe](A)p.[moe](T)p.[moe]([m5C])[sp].d(A)[sp].d(A)[sp].d([m5C])[sp].d(T)[sp].d(T)[sp].d(T)[sp].d(T)[sp].d(T)[sp].d(A)[sp].d(G)[sp].[moe](T)p.[moe]([m5C])p.[moe]([m5C])[sp].[moe](T)}$$$$ (last 3' nucleoside missing),0.67
18,RNA1{[moe](T)[sp].[moe]([m5C])p.[moe](A)p.[moe](T)p.[moe]([m5C])[sp].d(A)[sp].d([m5C])[sp].d([m5C])[sp].d(A)[sp].d(T)[sp].d(A)[sp].d([m5C])[sp].d(A)[sp].d(T)[sp].d(A)[sp].[moe](G)p.[moe]([m5C])p.[moe](A)[sp].[moe](G)}$$$$ (last 3' nucleoside missing),0.67
